Measurements: PMC9530963, “A cathelicidin antimicrobial peptide from Hydrophis cyanocinctus inhibits Zika virus infection by downregulating expression of a viral entry factor” (The Journal of Biological Chemistry, 2022)

Legend:
[1] = system: TIM-1; assay: TIM-1 level in Vero cells (Western blot); type: cell-based, Chlorocebus aethiops; settings: 6, 12, and 24 h post Hc-CATH addition
Protocol: Figure 3 Hc-CATH downregulates AXL in Vero cell.A, schematic diagram of B and C. B, Vero cells were seeded in 24-well plates (5 × 10^4 cells/well) and cultured in DMEM containing 2% FBS. Hc-CATH (1.25, 2.5, and 5 μM), AC5 (2.5 μM), LL-37 (2.5 μM), or same volume of PBS (peptide solvent) was added to cells. After culture at 37 °C for 6, 12, and 24 h, the levels of ZIKV entry factors, including AXL, TYRO3, and TIM-1, were tested by Western blot, respectively. C, Vero cells were seeded in 8-well cover slip chambers (5 × 10^4 cells/well) and cultured in DMEM containing 2% FBS. Hc-CATH (1.25, 2.5, and 5 μM), AC5 (2.5 μM), LL-37 (2.5 μM), or same volume of PBS (peptide solvent) was added to cells. After culture at 37 °C for 24 h, the level of AXL was tested by immunofluorescence staining. The scale bar represents 50 μm. D, schematic diagram of E. E, Vero cells were seeded in 24-well plates (5 × 10^4 cells/well) and cultured in DMEM containing 2% FBS. Hc-CATH (1.25, 2.5, and 5 μM), AC5 (2.5 μM), LL-37 (2.5 μM), or same volume of PBS (peptide solvent) was added to cells and incubated at 37 °C for 2 h. […] Ratio of AXL to β-actin was analyzed by ImageJ.
Vero cells were incubated with Hc-CATH (1.25, 2.5, and 5 μM), AC5 (2.5 μM), LL-37 (2.5 μM), or PBS (solvent of peptide). […] The levels of ZIKV entry factors, including AXL, TYRO3, and TIM-1, were detected by WB analysis. […]

[2] = system: PGE2; assay: PGE2 production in A549 cells (ELISA); type: cell-based, Homo sapiens; settings: 24 h, cell supernatant
Protocol: Figure 6 Hc-CATH downregulates AXL via inhibiting COX-2/PGE2/AC/PKA pathway.A, effect of Hc-CATH on COX-2 protein level. A549 cells were incubated with Hc-CATH (1.25, 2.5, or 5 μM) or PBS (solvent of Hc-CATH) at 37 °C for 24 h, COX-2 protein level was examined by Western blot (upper panel) and analyzed by ImageJ (lower panel). B, effect of Hc-CATH on the enzymatic activity of COX-2. Hc-CATH (1.25, 2.5, 5, and 10 μM) or PBS was incubated with COX-2. After incubation at 37 °C for 10 min, the enzymatic activity of COX-2 was detected by enzyme activity inhibitor screening kit. Celecoxib (COX-2 inhibitor, 100 nM) was used as positive control. C, effect of Hc-CATH on PGE2 production. A549 cells were incubated with Hc-CATH (5 μM) at 37 °C. After incubation for 24 h, the level of PGE2 in the cell supernatant was detected by ELISA. D and E, effect of AC (D) and PKA (E) on Hc-CATH-induced AXL downregulation. A549 cells were incubated with forskolin (FSK, agonist of AC, 10 μM) or H89 (inhibitor of PKA, 5 μM) at 37 °C. After incubation for 1 h, the culture media were removed, cells were washed three times with PBS, and fresh culture media were added to cells in the presence of Hc-CATH (5 μM). After incubation for 24 h, AXL protein level was examined by Western blot (upper panel of D and E) and analyzed by ImageJ (lower panel of D and E). ns, not significant, ∗∗p < 0.01, and ∗∗∗p < 0.001. […]

[3] = system: COX-2; assay: Enzymatic activity of COX-2 (inhibitor screening kit); type: biochemical; settings: 10 μM, incubated with COX-2 at 37 °C for 10 min
Protocol: Figure 6 Hc-CATH downregulates AXL via inhibiting COX-2/PGE2/AC/PKA pathway.A, effect of Hc-CATH on COX-2 protein level. A549 cells were incubated with Hc-CATH (1.25, 2.5, or 5 μM) or PBS (solvent of Hc-CATH) at 37 °C for 24 h, COX-2 protein level was examined by Western blot (upper panel) and analyzed by ImageJ (lower panel). B, effect of Hc-CATH on the enzymatic activity of COX-2. Hc-CATH (1.25, 2.5, 5, and 10 μM) or PBS was incubated with COX-2. After incubation at 37 °C for 10 min, the enzymatic activity of COX-2 was detected by enzyme activity inhibitor screening kit. Celecoxib (COX-2 inhibitor, 100 nM) was used as positive control. C, effect of Hc-CATH on PGE2 production. A549 cells were incubated with Hc-CATH (5 μM) at 37 °C. After incubation for 24 h, the level of PGE2 in the cell supernatant was detected by ELISA. D and E, effect of AC (D) and PKA (E) on Hc-CATH-induced AXL downregulation. […] After incubation for 24 h, AXL protein level was examined by Western blot (upper panel of D and E) and analyzed by ImageJ (lower panel of D and E). ns, not significant, ∗∗p < 0.01, and ∗∗∗p < 0.001.
The effect of Hc-CATH on the enzymatic activity of COX-2 was detected by enzyme activity inhibitor screening kit. […] After incubation at 37 °C for 10 min, the enzymatic activity of COX-2 was detected by the kit. […]

[4] = system: ZIKV; assay: ZIKV replication stage, Vero cells (peptide added after infection); type: cell-based, ZIKV strain PRVABC59; settings: 2.5 μM added after 2 h ZIKV infection (MOI = 1), 48 h, relative to PBS
Protocol: B–I, Vero (B–G), A549 (H), or U251 (I) cells were incubated with ZIKV (MOI = 1) at 37 °C for 2 h, washed with PBS, and transferred with fresh DMEM containing 2% FBS and Hc-CATH (2.5 μM), AC5 (2.5 μM), LL-37 (2.5 μM), or PBS (solvent of peptide). After culture at 37 °C for 48 h, intracellular ZIKV RNA (B), NS3 protein (C, D, H, and I), E protein level (E, the scale bar represents 50 μm), and extracellular ZIKV titer (F and G) were detected by qPCR, Western blot, immunofluorescence staining, and plaque-forming assay, respectively.
Vero cells were incubated with ZIKV (MOI = 1) at 37 °C for 2 h, washed three times with PBS, and transferred with fresh DMEM containing 2% FBS and Hc-CATH (2.5 μM), AC5 (2.5 μM), LL-37 (2.5 μM), or PBS. After culture at 37 °C for 48 h, intracellular ZIKV RNA, NS3 protein, E protein, and extracellular ZIKV titer were detected by qPCR, WB, IF, and plaque-forming assay, respectively. The effect of Hc-CATH on ZIKV replication stage was further tested in A549 and U251 cells under the same condition, and intracellular ZIKV NS3 protein was detected by WB.

[5] = cited from earlier work
Description: Antimicrobial peptides (AMPs), also called host defense peptides, are a group of relatively small cationic peptides. They are an important part of the innate immune system and play an important role in fighting against bacterial infection ([26]). Recently, more and more studies have shown that AMPs can also exert antiviral effects by inhibiting virus adsorption, disrupting virus envelope, and regulating host antiviral immune response ([27], [28], [29]).

KFFKRLLKSVRRAVKKFRKKPRLIGLSTLL [Hc-CATH]
level of TIM-1 in Vero cells [1]: did not obviously influence | synthesis of PGE2 [2]: significantly reduced the synthesis of PGE2 | inhibitory rate against COX-2 activity [3]: about 80% | intracellular ZIKV RNA, NS3 protein, E protein, extracellular ZIKV titer, peptide maintained after infection [4]: did not reduce | cytotoxicity [5]: low cytotoxicity | stability [5]: high stability
